Laboratory results reported in patent US20050220865A1, “Compressed composition comprising magnesium salt” (priority 2004, published 2005).

How the values were obtained:
[1] = cited from earlier work; for USP 27/NF22 Solubility: USP 27/NF22 solubility term
[2] = Magnesium oxide tablet monograph USP <711> dissolution; assay type: physicochemical; details: FIG. 5; binary mixture of heavy grade magnesium oxide, USP with excipient
Experimental: The following drawings are given by way of illustration only, and thus are not intended to limit the scope of the present invention. The USP27/NF22 monograph for magnesium oxide tablets specifies that the dissolution method is to be executed using the general conditions of chapter <711> with 900 mL of 0.1 N hydrochloric acid, a paddle rotation speed of 75 RPM, and a sampling timepoint of 45 minutes.
(§1) USP 27/NF22 specification for magnesium oxide tablets is not less than 75% (O) of the labeled amount of MgO is dissolved in 45 minutes. Dissolution testing is performed using apparatus II with 900 mL of 0.1 N hydrochloric acid maintained at 37° C. and agitated at 75 rpm. Samples are withdrawn at after 45 minutes of testing. The amount of MgO dissolved is then determined using atomic absorption (AA) spectrophotometry at a wavelength of 285.2 nm using filtered portions of the solution under test, diluted with Dissolution Medium. A standard curve is generated using a magnesium standard solution of known concentration in the same medium.

[3] = Storage stability of USP <711> dissolution profile at 40° C. and 75% relative humidity; assay type: physicochemical; details: FIG. 4; stored at 40° C. and 75% relative humidity up to 2 months; protected from moisture
Experimental: By “pharmaceutically acceptable storage conditions” is meant storage at 25° C. and 60% relative humidity (RH) in a tight, sealed container-enclosure system. The storage conditions employed herein (40° C. and 75% RH) in evaluating formulations are used in the pharmaceutical industry to conduct accelerated stability testing of formulations such that a period of 2 months under these conditions is generally accepted to equal a period of 1 year under pharmaceutically acceptable storage conditions (25° C. and 60% relative humidity).
as §1
The initial dissolution profile for each of the prior art and present formulations is determined as described herein. […] At monthly intervals, the dissolution profile of the formulations is determined again. […]

Molecule	USP 27/NF22 Solubility [1]	Solubility in Neutral Water [1] [g/100 mL]	influence of excipient on dissolution of magnesium [2]	dissolution of magnesium from pure magnesium oxide [3]
[F-].[F-].[Mg+2] [MgF2]	Practically Insoluble	0.0002		
potassium phosphate			decrease dissolution	
[O]=[Mg] [MgO, magnesium oxide, reference compound]	Practically Insoluble	0.00062		suitable dissolution
O=C([O-])CC(O)(CC(=O)[O-])C(=O)[O-].[Na+].[Na+].[Na+] [sodium citrate]			decrease dissolution	
